Measured values taken from patent US8765741B2, “5,6-dihydro-1H-pyridin-2-one compounds” (Anadys Pharmaceuticals, Inc., priority 2007, dated 2014).

Target: NS5B polymerase (Hepatitis C virus genotype 1b, UniProt P26663)
Assay: biochemical
Details: not given
Procedure: Compounds were tested for HCV polymerase inhibition. Assays were performed in a 96-well streptavidin-coated FlashPlate using 20 nM enzyme, 0.5 μCi of [α-^33P]GTP, 0.6 μM GTP, and 250 nM 5′biotinylated oligo (rG13)/poly rC in 20 mM Tris-HCl, pH 7.5, 5 mM MgCl2, 5 mM dithiothreitol, 0.1 g/L bovine serum albumin, and 100 U/mL RNAse inhibitor. The reaction was stopped by aspiration after 75 min at 28° C. and the plate was washed several times. After washing and drying the plate, incorporated radioactivity was counted using a Microbeta scintillation counter. IC50 values were calculated relative to the uninhibited control and inhibition data were fitted to a 4-parameter IC50 equation.

Chain of NS5B polymerase (P26663 2420-3010): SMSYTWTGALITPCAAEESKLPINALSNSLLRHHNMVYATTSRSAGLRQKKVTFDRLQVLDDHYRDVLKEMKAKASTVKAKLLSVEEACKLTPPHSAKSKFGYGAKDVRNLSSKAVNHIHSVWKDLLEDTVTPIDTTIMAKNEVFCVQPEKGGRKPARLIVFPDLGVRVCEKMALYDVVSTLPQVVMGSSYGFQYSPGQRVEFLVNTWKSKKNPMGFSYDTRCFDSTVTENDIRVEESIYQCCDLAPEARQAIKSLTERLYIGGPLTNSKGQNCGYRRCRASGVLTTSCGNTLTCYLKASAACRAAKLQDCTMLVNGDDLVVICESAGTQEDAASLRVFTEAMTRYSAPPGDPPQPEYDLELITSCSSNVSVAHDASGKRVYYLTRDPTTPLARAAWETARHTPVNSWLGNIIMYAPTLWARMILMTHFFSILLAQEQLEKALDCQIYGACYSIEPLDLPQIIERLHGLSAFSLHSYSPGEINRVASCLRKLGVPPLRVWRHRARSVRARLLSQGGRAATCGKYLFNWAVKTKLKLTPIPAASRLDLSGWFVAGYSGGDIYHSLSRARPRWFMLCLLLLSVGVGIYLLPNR

SMILES	IC50
CS(=O)(=O)Nc1ccc2c(c1)S(=O)(=O)N=C(C1=C(O)[C@H]3[C@@H]4CC[C@@H](C4)[C@H]3N(Cc3ccc(F)cc3)C1=O)N2 [Example 7, N-{3-[(1S,2R,7S,8R)-3-(4-Fluoro-benzyl)-6-hydroxy-4-oxo-3-aza-tricyclo[6.2.1.0^2,7]undec-5-en-5-yl]-1,1-dioxo-1,4-dihydro-1λ^6-benzo[1,2,4]thiadiazin-7-yl}-methanesulfonamide]	0.1 to 1 µM
CS(=O)(=O)Nc1ccc2c(c1)S(=O)(=O)N=C(C1=C(O)C3C4CCC(C4)C3N(Cc3ccc(F)cc3)C1=O)N2 (racemic) [Example 1, (rac-di-exo)-N-{3-[3-(4-Fluoro-benzyl)-6-hydroxy-4-oxo-3-aza-tricyclo[6.2.1.0^2,7]undec-5-en-5-yl]-1,1-dioxo-1,4-dihydro-1λ^6-benzo[1,2,4]thiadiazin-7-yl}-methanesulfonamide]	< 0.02 µM
CS(=O)(=O)Nc1ccc2c(c1)S(=O)(=O)N=C(C1=C(O)[C@@H]3[C@H]4CC[C@H](C4)[C@@H]3N(Cc3ccc(F)cc3)C1=O)N2 [Example 6, N-{3-[(1R,2S,7R,8S)-3-(4-Fluoro-benzyl)-6-hydroxy-4-oxo-3-aza-tricyclo[6.2.1.0^2,7]undec-5-en-5-yl]-1,1-dioxo-1,4-dihydro-1λ^6-benzo[1,2,4]thiadiazin-7-yl}-methanesulfonamide]	< 0.02 µM
CS(=O)(=O)Nc1ccc2c(c1)S(=O)(=O)N=C(C1=C(O)[C@H]3[C@H]4CC[C@H](C4)[C@H]3N(Cc3ccc(F)cc3)C1=O)N2 [Example 5, N-{3-[(1R,2R,7S,8S)-3-(4-Fluoro-benzyl)-6-hydroxy-4-oxo-3-aza-tricyclo[6.2.1.0^2,7]undec-5-en-5-yl]-1,1-dioxo-1,4-dihydro-1λ^6-benzo[1,2,4]thiadiazin-7-yl}-methanesulfonamide]	0.1 to 1 µM

Same assay, conditions: NS5B polymerase inhibition; 20 nM enzyme, 75 min at 28° C.; read-out: IC50

IC50	SMILES
< 0.02 µM	CS(=O)(=O)Nc1ccc2c(c1)S(=O)(=O)N=C(C1=C(O)[C@@H]3[C@H]4CC[C@H](C4)[C@@H]3N(Cc3ccccc3)C1=O)N2 [Example 56, (1R,2S,7R,8S)-N-[3-(3-Benzyl-6-hydroxy-4-oxo-3-aza-tricyclo[6.2.1.0^2,7]undec-5-en-5-yl)-1,1-dioxo-1,4-dihydro-1λ^6-benzo[1,2,4]thiadiazin-7-yl]-methanesulfonamide]
0.02 to 0.1 µM	CC(C)CN1C(=O)C(C2=NS(=O)(=O)c3cc(NS(C)(=O)=O)ccc3N2)=C(O)[C@@H]2[C@H]3CC[C@H](C3)[C@@H]21 [Example 57, (1R,2S,7R,8S)-N-[3-(6-Hydroxy-3-isobutyl-4-oxo-3-aza-tricyclo[6.2.1.0^2,7]undec-5-en-5-yl)-1,1-dioxo-1,4-dihydro-1λ^6-benzo[1,2,4]thiadiazin-7-yl]-methanesulfonamide]
0.02 to 0.1 µM	CS(=O)(=O)Nc1ccc2c(c1)S(=O)(=O)N=C(C1=C(O)C3C4CCC(C5CC54)C3N(Cc3ccc(F)cc3)C1=O)N2 (racemic) [Example 52]
< 0.02 µM	NS(=O)(=O)Nc1ccc2c(c1)S(=O)(=O)N=C(C1=C(O)[C@@H]3[C@H]4CC[C@H](C4)[C@@H]3N(Cc3ccc(F)cc3)C1=O)N2 [Example 55, (1R,2S,7R,8S)-N-{3-[3-(4-Fluoro-benzyl)-6-hydroxy-4-oxo-3-aza-tricyclo[6.2.1.0^2,7]undec-5-en-5-yl]-1,1-dioxo-1,4-dihydro-1λ^6-benzo[1,2,4]thiadiazin-7-yl}-sulfamide]
0.02 to 0.1 µM	CC(C)CCN1C(=O)C(C2=NS(=O)(=O)c3cc(NS(C)(=O)=O)ccc3N2)=C(O)C2C3C=CC(C3)C21 (racemic) [Example 31, (rac-di-exo)-N-{3-[6-Hydroxy-3-(3-methyl-butyl)-4-oxo-3-aza-tricyclo[6.2.1.0^2,7]undeca-5,9-dien-5-yl]-1,1-dioxo-1,4-dihydro-1λ^6-benzo[1,2,4]thiadiazin-7-yl}-methanesulfonamide]
0.02 to 0.1 µM	CS(=O)(=O)Nc1ccc2c(c1)S(=O)(=O)N=C(C1=C(O)C3C4C=CC(C4)C3N(Cc3ccc(F)cc3)C1=O)N2 (racemic) [Example 10, (rac-di-endo)-N-{3-[3-(4-Fluoro-benzyl)-6-hydroxy-4-oxo-3-aza-tricyclo[6.2.1.0^2,7]undeca-5,9-dien-5-yl]-1,1-dioxo-1,4-dihydro-1λ^6-benzo[1,2,4]thiadiazin-7-yl}-methanesulfonamide]
0.1 to 1 µM	CC(C)CCN1C(=O)C(C2=NS(=O)(=O)c3cc(N(C)S(C)(=O)=O)ccc3N2)=C(O)C2C3CCC(O3)C21 (racemic) [Example 59, (rac-di-exo)-N-{3-[6-Hydroxy-3-(3-methyl-butyl)-4-oxo-11-oxa-3-aza-tricyclo[6.2.1.0^2,7]undec-5-en-5-yl]-1,1-dioxo-1,4-dihydro-1λ^6-benzo[1,2,4]thiadiazin-7-yl}-N-methyl-methanesulfonamide]
< 0.02 µM	CS(=O)(=O)Nc1ccc2c(c1)S(=O)(=O)N=C(C1=C(O)[C@@H]3[C@H]4CC[C@H](C4)[C@@H]3N(Cc3ccc(F)c(F)c3)C1=O)N2 [Example 16, N-{3-[(1R,2S,7R,8S)-3-(3,4-Difluoro-benzyl)-6-hydroxy-4-oxo-3-aza-tricyclo[6.2.1.0^2,7]undec-5-en-5-yl]-1,1-dioxo-1,4-dihydro-1λ^6-benzo[1,2,4]thiadiazin-7-yl}-methanesulfonamide]
1 to 100 µM	CC(C)OC(=O)N(c1ccc2c(c1)S(=O)(=O)N=C(C1=C(O)C3C([C@@H]4CC[C@H]3C4)N(C3CCCC3)C1=O)N2)S(C)(=O)=O (stereo partly drawn) [Example 47, N-[3-(1R,2S,7R,8S)-(3-Cyclopentyl-6-hydroxy-4-oxo-3-aza-tricyclo[6.2.1.0^2,7]undec-5-en-5-yl)-1,1-dioxo-1,4-dihydro-1λ^6-benzo[1,2,4]thiadiazin-7-yl]-methanesulfonamide-N-isopropyl carbamate]
0.1 to 1 µM	CC(C)CCN1C(=O)C(C2=NS(=O)(=O)c3cc(N(C)S(C)(=O)=O)ccc3N2)=C(O)[C@@H]2[C@H]3CC[C@H](C3)[C@@H]21 [Example 24, (1R,2S,7R,8S)-N-{3-[6-Hydroxy-3-(3-methyl-butyl)-4-oxo-3-aza-tricyclo[6.2.1.0^2,7]undec-5-en-5-yl]-1,1-dioxo-1,4-dihydro-1λ^6-benzo[1,2,4]thiadiazin-7-yl}-N-methyl-methanesulfonamide]
1 to 100 µM	CC(C)CCN1C(=O)C(C2=NS(=O)(=O)c3cc(I)ccc3N2)=C(O)C2C3CCC(O3)C21 (racemic) [Example 33, (rac-di-exo)-6-Hydroxy-5-(7-iodo-1,1-dioxo-1,4-dihydro-1λ^6-benzo[1,2,4]thiadiazin-3-yl)-3-(3-methyl-butyl)-11-oxa-3-aza-tricyclo[6.2.1.0^2,7]undec-5-en-4-one]
1 to 100 µM	CN(c1ccc2c(c1)S(=O)(=O)N=C(C1=C(O)C3C4C=CC(C4)C3N(Cc3ccc(F)cc3)C1=O)N2)S(C)(=O)=O (racemic) [Example 39, (rac-di-exo)-N-{3-[3-(4-Fluoro-benzyl)-6-hydroxy-4-oxo-3-aza-tricyclo[6.2.1.0^2,7]undeca-5,9-dien-5-yl]-1,1-dioxo-1,4-dihydro-1λ^6-benzo[1,2,4]thiadiazin-7-yl}-N-methyl-methanesulfonamide]
0.02 to 0.1 µM	CC(C)CCN1C(=O)C(C2=NS(=O)(=O)c3cc(NS(C)(=O)=O)ccc3N2)=C(O)[C@@H]2[C@H]3CC[C@H](C3)[C@@H]21 [Example 22, (1R,2S,7R,8S)-N-{3-[6-Hydroxy-3-(3-methyl-butyl)-4-oxo-3-aza-tricyclo[6.2.1.0^2,7]undec-5-en-5-yl]-1,1-dioxo-1,4-dihydro-1λ^6-benzo[1,2,4]thiadiazin-7-yl}-methanesulfonamide]
0.1 to 1 µM	CS(=O)(=O)Nc1ccc2c(c1)S(=O)(=O)N=C(C1=C(O)C3C4CCC(C4)C3N(Cc3ccc(F)cn3)C1=O)N2 (racemic) [Example 3, (rac-di-endo)-N-{3-[3-(5-Fluoro-pyridin-2-ylmethyl)-6-hydroxy-4-oxo-3-aza-tricyclo[6.2.1.0^2,7]undec-5-en-5-yl]-1,1-dioxo-1,4-dihydro-1λ^6-benzo[1,2,4]thiadiazin-7-yl}-methanesulfonamide]
< 0.02 µM	CS(=O)(=O)Nc1ccc2c(c1)S(=O)(=O)C=C(C1=C(O)[C@@H]3[C@H]4CC[C@H](C4)[C@@H]3N(Cc3ccc(F)cc3)C1=O)N2 [Example 29, N-{3-[(1R,2S,7R,8S)-3-(4-Fluoro-benzyl)-6-hydroxy-4-oxo-3-aza-tricyclo[6.2.1.0^2,7]undec-5-en-5-yl]-1,1-dioxo-1,4-dihydro-1λ^6-benzo[1,4]thiazin-7-yl}-methanesulfonamide]
0.1 to 1 µM	Nc1ccc2c(c1)S(=O)(=O)N=C(C1=C(O)[C@@H]3[C@H]4CC[C@H](C4)[C@@H]3N(Cc3ccc(F)cc3)C1=O)N2 [Example 30, (1R,2S,7R,8S)-5-(7-Amino-1,1-dioxo-1,4-dihydro-1λ^6-benzo[1,2,4]thiadiazin-3-yl)-3-(4-fluoro-benzyl)-6-hydroxy-3-aza-tricyclo[6.2.1.0^2,7]undec-5-en-4-one]
0.02 to 0.1 µM	CC(C)(C)CCN1C(=O)C(C2=NS(=O)(=O)c3cc(NS(=O)(=O)C4CC4)ccc3N2)=C(O)C2C3C=CC(C3)C21 (racemic) [Example 43, (rac-di-exo)-Cyclopropanesulfonic acid{3-[3-(3,3-dimethyl-butyl)-6-hydroxy-4-oxo-3-aza-tricyclo[6.2.1.0^2,7]undeca-5,9-dien-5-yl]-1,1-dioxo-1,4-dihydro-1λ^6-benzo[1,2,4]thiadiazin-7-yl}-amide]
0.02 to 0.1 µM	CS(=O)(=O)Nc1ccc2c(c1)S(=O)(=O)N=C(C1=C(O)C3C4CCC(O4)C3N(C3CCCC3)C1=O)N2 (racemic) [Example 48, (rac-di-exo)-N-[3-(3-Cyclopentyl-6-hydroxy-4-oxo-11-oxa-3-aza-tricyclo[6.2.1.0^2,7]undec-5-en-5-yl)-1,1-dioxo-1,4-dihydro-1λ^6-benzo[1,2,4]thiadiazin-7-yl]-methanesulfonamide]
